In the NIST ThermoML archive (doi:10.1021/acs.jced.7b00099):
“And” between values parts separate entries of the source, which are not always exact repeats. Equal entries are not always repeated. ± gives the expanded uncertainty stated by the source.

Details: Liquid, Closed cell (Static) method

CCCCCCCCCCCCCC(=O)OC [methyl tetradecanoate]
Details | vapor or sublimation pressure [kPa]
353.15 K | 0.0133 ± 0.0007
363.15 K | 0.0267 ± 0.0011
373.15 K | 0.0516 ± 0.0019
383.15 K | 0.0959 ± 0.0034
393.15 K | 0.1723 ± 0.0057
403.15 K | 0.3003 ± 0.0096
413.15 K | 0.509 ± 0.016
423.15 K | 0.839 ± 0.011
433.15 K | 1.35 ± 0.01
443.15 K | 2.123 ± 0.013
453.15 K | 3.27 ± 0.016

CCCCCCCCCCCCCC [tetradecane]
Details | vapor or sublimation pressure
351.75 K | 0.124 ± 0.004 kPa
353.15 K | 0.1355 ± 0.0046 kPa and 0.1354 ± 0.0046 kPa
361.8 K | 0.232 ± 0.008 kPa
361.89 K | 0.232 ± 0.008 kPa
363.15 K | 0.2517 ± 0.0081 kPa
371.91 K | 0.422 ± 0.013 kPa
373.15 K | 0.4469 ± 0.014 kPa and 0.4472 ± 0.014 kPa
381.93 K | 0.717 ± 0.009 kPa
382.07 K | 0.716 ± 0.009 kPa
383.15 K | 0.762 ± 0.01 kPa and 0.763 ± 0.01 kPa
391.95 K | 1.186 ± 0.015 kPa
392 K | 1.186 ± 0.015 kPa
393.15 K | 1.254 ± 0.016 kPa and 1.255 ± 0.016 kPa
402.74 K | 1.947 ± 0.013 kPa
403.15 K | 1.998 ± 0.013 kPa
412.69 K | 3.029 ± 0.016 kPa
413.15 K | 3.09 ± 0.016 kPa and 3.086 ± 0.016 kPa
422.55 K | 4.545 ± 0.021 kPa
423.15 K | 4.652 ± 0.021 kPa and 4.642 ± 0.021 kPa
432.39 K | 6.661 ± 0.028 kPa
433.15 K | 6.836 ± 0.029 kPa and 6.812 ± 0.028 kPa
442.49 K | 9.461 ± 0.041 kPa
443.15 K | 9.776 ± 0.042 kPa
452.49 K | 13.46 ± 0.053 kPa
453.15 K | 13.75 ± 0.054 kPa

CCCCCCCCCCCC(=O)OC [methyl dodecanoate]
Details | vapor or sublimation pressure [kPa]
353.15 K | 0.0644 ± 0.0024
363.15 K | 0.1217 ± 0.0043
373.15 K | 0.2212 ± 0.0072
383.15 K | 0.388 ± 0.012
393.15 K | 0.657 ± 0.009
403.15 K | 1.08 ± 0.014
413.15 K | 1.728 ± 0.011
423.15 K | 2.694 ± 0.015
433.15 K | 4.104 ± 0.019

CCCCCCCCCCCCCCCC(=O)OC [methyl hexadecanoate]
Details | vapor or sublimation pressure [kPa]
373.15 K | 0.0158 ± 0.0008
383.15 K | 0.0294 ± 0.0012
393.15 K | 0.0535 ± 0.002
403.15 K | 0.095 ± 0.003
413.15 K | 0.1644 ± 0.0055
423.15 K | 0.2789 ± 0.009
433.15 K | 0.4635 ± 0.015
443.15 K | 0.756 ± 0.01
453.15 K | 1.21 ± 0.016
